In publication PMC5969746 (PLoS ONE, 2018):
Substitutions are numbered along the chain they refer to. Numbers in names are those of the source.

Tests used:
[1] = biological target: T1, scyllo-inositol dehydrogenase with L-glucose dehydrogenase activity (Pl-scyllo-IDH) (Paracoccus laeviglucosivorans, UniProt K7ZP76); assay: X-ray crystal structure, […] Å; type: binding
T1 construct: gene lgdA; lgdA in pET21a(+), expressed in E. coli BL21(DE3), Ni-NTA purified; homo-tetramer, active site includes H318 of the adjacent subunit
T1 sequence (K7ZP76 1-372): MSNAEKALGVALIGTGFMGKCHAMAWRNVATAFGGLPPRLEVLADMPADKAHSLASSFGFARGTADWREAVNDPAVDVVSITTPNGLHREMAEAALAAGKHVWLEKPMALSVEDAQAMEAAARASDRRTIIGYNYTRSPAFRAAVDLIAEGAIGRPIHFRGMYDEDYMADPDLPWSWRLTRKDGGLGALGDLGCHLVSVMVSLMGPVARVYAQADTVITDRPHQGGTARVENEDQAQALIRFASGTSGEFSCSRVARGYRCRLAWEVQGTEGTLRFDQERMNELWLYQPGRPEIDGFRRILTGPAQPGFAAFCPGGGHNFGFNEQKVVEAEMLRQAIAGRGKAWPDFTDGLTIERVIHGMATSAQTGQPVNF

[2] = biological target: T1, scyllo-inositol dehydrogenase with L-glucose dehydrogenase activity (Pl-scyllo-IDH); assay: X-ray crystal structure, […] Å; type: binding; remark: listed apart in the source
[3] = biological target: T1, scyllo-inositol dehydrogenase with L-glucose dehydrogenase activity (Pl-scyllo-IDH); assay: X-ray crystal structure, […] Å; type: binding; details: crystal soaked with 100 mM myo-inositol and 25 mM NAD+; active site
purified protein = substrate: O[C@H]1[C@H](O)[C@@H](O)[C@H](O)[C@@H](O)[C@@H]1O; assay: purified protein; type: biochemical, Paracoccus laeviglucosivorans; details: 20 mM NAD+, 100 mM Tris-HCl, pH 9.0
[4] = biological target: the molecule itself; assay: crystal structure; homo-tetramer in the asymmetric unit, space group P212121; crystals grown at 20°C by hanging-drop vapor diffusion, 0.1 M sodium acetate pH 4.8-5.4, 12-35% PEG 3350; apo form and complexes with NAD+/NADH and sugars

With `O=C1O[C@@H](CO)[C@H](O)[C@@H](O)[C@@H]1O` [L-glucono-1,5-lactone] the “X-ray crystal structure, 1.8 Å” value ([1]; crystal soaked with 100 mM L-glucose and 25 mM NAD+, active site, NADH complex) was “bound molecule in the active site was in fact the reaction product of L-glucose oxidation”.

For `NC(=O)C1=CN([C@@H]2O[C@H](COP(=O)(O)OP(=O)(O)OC[C@H]3O[C@@H](n4cnc5c(N)ncnc54)[C@H](O)[C@@H]3O)[C@@H](O)[C@H]2O)C=CC1` [NADH], the “X-ray crystal structure, 1.8 Å” value ([1]; complex with L-glucono-1,5-lactone, crystal soaked with NAD+, assigned as NADH) was “the bound cofactor molecule might therefore be NADH”.

In the case of `NC(=O)c1ccc[n+]([C@@H]2O[C@H](COP(=O)(O)OP(=O)(O)OC[C@H]3O[C@@H](n4cnc5c(N)ncnc54)[C@H](O)[C@@H]3O)[C@@H](O)[C@H]2O)c1` [NAD^+], the “X-ray crystal structure, 2.0 Å” value ([2]; complex with scyllo-inosose (also with myo-inositol, 5YA8, 2.3 Å), 25 mM NAD+ soak) is reported as “myo-inositol/NAD^+ and scyllo-inosose/NAD^+ complexes have been deposited”.

With `O[C@H]1[C@H](O)[C@@H](O)[C@H](O)[C@@H](O)[C@H]1O` [myo-inositol] the “X-ray crystal structure, 2.3 Å” value [3] was “complex structures of Pl-scyllo-IDH with scyllo-inosose and myo-inositol were also determined”.

For `O=C1[C@@H](O)[C@H](O)[C@@H](O)[C@H](O)[C@H]1O` [scyllo-inosose], the “X-ray crystal structure, 2.0 Å” value ([2]; crystal soaked with 100 mM scyllo-inosose and 25 mM NAD+, active site) was “the carbonyl oxygen located between K106 and H195 formed hydrogen bonds”.

B1: scyllo-inositol dehydrogenase with L-glucose dehydrogenase activity (Pl-scyllo-IDH) (Paracoccus laeviglucosivorans; R178A) (protein)
chain: T1 sequence (K7ZP76 1-372) with R178A
notes: lgdA in pET21a(+), expressed in E. coli BL21(DE3), Ni-NTA purified; homo-tetramer, active site includes H318 of the adjacent subunit
B1 gave a Km (purified protein) of 40.6 ± 7.2 mM, a kcat (purified protein) of 8.1 ± 0.65 s⁻¹ and a kcat/Km (purified protein) of 200 M⁻¹ s⁻¹.

B2: Paracoccus laeviglucosivorans scyllo-inositol dehydrogenase (enzyme)
chain: T1 sequence (K7ZP76 1-372)
notes: Protein encoded by the lgdA gene of Paracoccus laeviglucosivorans (scyllo-inositol dehydrogenase, GFO/IDH/MocA family); A selenomethionine-substituted form (E. coli B834(DE3)) was used only for phasing; Crystals were also soaked with NAD+ and L-glucose, myo-inositol or scyllo-inosose; also called Pl-scyllo-IDH; LgdA; source: E. coli BL21(DE3), pET21a(+), purified (Ni-NTA agarose, dialysis)
In the case of B2, the “stoichiometry N” value [4] is reported as 4.
